{
  "source": "paper PMC5754397",
  "about": "“Population pharmacokinetics of nintedanib, an inhibitor of tyrosine kinases, in patients with non-small cell lung cancer or idiopathic pulmonary fibrosis” (Cancer Chemotherapy and Pharmacology, 2017)",
  "key": {"[1]": {"assay": "Population pharmacokinetic analysis in healthy subjects after intravenous administration of nintedanib (one-compartment model)", "type": "in vivo, human", "details": "human, plasma, estimate (RSE%)", "text": "The pharmacokinetic profile of BIBF 1202 was best described by a one-compartment model with first-order elimination (see Online Resource Fig. S1 for model structure). To account for formation of BIBF 1202 in the intestine or via hepatic first-pass effect, a first-order absorption with lag time (ALAG2) was implemented as per nintedanib absorption. The relative bioavailability (F2) and the absorption-rate constant (k a2) were implemented as functions of nintedanib F1 and k a, respectively (substantial drop in OFV as compared to a model, where F2 and k a2 were estimated independently of F1 and k a). This parametrization accounted for correlations between nintedanib and BIBF 1202 parameters and replaced the full variance–covariance matrix which was not applied due to the sequential modeling approach used. The rate of formation of BIBF 1202 (k met) during nintedanib systemic elimination was accounted by defining it as a function of nintedanib clearance: k met = CL/V2*ffM, where CL and V2 denote the clearance and central volume of distribution of nintedanib respectively, and ffM denotes the proportion of the nintedanib elimination resulting in BIBF 1202 formation. Due to the lack of data for BIBF 1202 given as an intravenous (IV) infusion, several parameter estimates were not identifiable (ffM, BIBF 1202 apparent volume of distribution [V3/F]) and were, therefore, fixed. The value for ffM was derived from pharmacokinetic data after IV administration of nintedanib (Online Resource Table S4) and the ratio of V3/F–V2/F was fixed based on information observed in rats. […] In addition to the (inter-individual) variability of F2 induced by the variability in F1 (F2 being proportional to F1), additional IIV could be implemented for F2.\nTable S4 Structural parameters for nintedanib and BIBF 1202 from a population pharmacokinetic analysis based on healthy subjects (n=23^a, 372 observations) after intravenous administration of nintedanib\nOne subject (3 mg dose) was excluded from analysis due to increasing plasma concentrations of nintedanib after end of infusion"}, "[2]": {"details": "cited from earlier work"}, "[3]": {"details": "Phase I trial; cited from earlier work"}, "[4]": {"set-up": "method as in PMID 21204634", "details": "cited from earlier work"}, "P-glycoprotein (P-gp)": {"tested_on": "P-glycoprotein (P-gp)", "set-up": "method as in ref 13, 21, 22 = [13]; 13. Boehringer Ingelheim (2017) OFEV® (nintedanib) capsules, for oral use; Prescribing information, revised: 08/2017. http://docs.boehringer-ingelheim.com/Prescribing%20Information/PIs/Ofev/ofev.pdf . || [21]; 21. Boehringer Ingelheim (2013) Relative bioavailability of nintedanib given alone and in combination with ketoconazole at steady state in healthy male volunteers (an open-label, randomised, two-way c || [22]; 22. Boehringer Ingelheim (2013) Relative bioavailability of a single oral dose of nintedanib given alone and in combination with multiple oral doses of rifampicin in healthy male volunteers (an open-l)", "details": "cited from earlier work"}, "[5]": {"set-up": "method as in ref 13, 21, 22 = [13]; 13. Boehringer Ingelheim (2017) OFEV® (nintedanib) capsules, for oral use; Prescribing information, revised: 08/2017. http://docs.boehringer-ingelheim.com/Prescribing%20Information/PIs/Ofev/ofev.pdf . || [21]; 21. Boehringer Ingelheim (2013) Relative bioavailability of nintedanib given alone and in combination with ketoconazole at steady state in healthy male volunteers (an open-label, randomised, two-way c || [22]; 22. Boehringer Ingelheim (2013) Relative bioavailability of a single oral dose of nintedanib given alone and in combination with multiple oral doses of rifampicin in healthy male volunteers (an open-l)", "details": "cited from earlier work"}, "[6]": {"set-up": "method as in ref 34 = [34]; 34. Boehringer Ingelheim (2015) Pharmacokinetics, safety and tolerability of nintedanib single oral dose in male and female patients with different degrees of hepatic impairment (Child-Pugh classifica)", "details": "Child–Pugh classification, subjects with liver cirrhosis; cited from earlier work"}, "[7]": {"tested_on": "idiopathic pulmonary fibrosis (IPF)", "set-up": "method as in PMID 21992121, PMID 24836310", "details": "patients with IPF, 52-week treatment period; cited from earlier work"}},
  "data": [
    {"smiles": "COC(=O)c1ccc2c(c1)NC(=O)/C2=C(\\Nc1ccc(N(C)C(=O)CN2CCN(C)CC2)cc1)c1ccccc1", "note": "[nintedanib]", "values": [
      {"measurement": "clearance", "setting": "[1]; healthy subjects (n=23), single intravenous nintedanib infusion 1, 3 or 6 mg, data of absolute bioavailability study [7], read-out: CL, total body clearance for nintedanib (converted)", "result": 2570, "unit": "mL/min"},
      {"measurement": "Vd", "setting": "[1]; healthy subjects, intravenous nintedanib, read-out: V2, volume of distribution for nintedanib", "result": 60.9, "unit": "L"},
      {"measurement": "absolute bioavailability", "setting": "[2]", "result": "about 5%"},
      {"measurement": "dose proportionality of total and peak systemic exposures", "setting": "[2]", "result": "dose-proportional"},
      {"measurement": "geometric mean terminal elimination half-life", "setting": "[2]", "result": "10 to 15", "unit": "h"},
      {"measurement": "total fraction of nintedanib and its metabolites absorbed", "setting": "[2]; estimated", "result": 23, "unit": "%"},
      {"measurement": "time of peak plasma concentrations after oral dosing", "setting": "[2]; patients with solid tumors", "result": "2 to 4", "unit": "h"},
      {"measurement": "time to steady state", "setting": "[2]; twice-daily dosing", "result": "≤ 7", "unit": "days"},
      {"measurement": "increase of exposure (AUC0−∞) by food", "setting": "[3]", "result": 20, "unit": "%"},
      {"measurement": "increase of maximum plasma concentrations (Cmax) by food", "setting": "[3]", "result": 20, "unit": "%"},
      {"measurement": "eliminated in urine", "setting": "[4]", "result": "Less than 1%"},
      {"measurement": "excreted in the feces", "setting": "[4]", "result": "about 94 % of the dose"},
      {"measurement": "substrate of P-glycoprotein (P-gp)", "setting": "P-glycoprotein (P-gp)", "result": "substrate"},
      {"measurement": "increase of nintedanib exposure on co-administration with ketoconazole", "setting": "[5]; 400 mg ketoconazole (potent P-gp inhibitor)", "result": 60, "unit": "%"},
      {"measurement": "decrease of nintedanib exposure on co-administration with rifampicin", "setting": "[5]; 600 mg rifampicin (potent P-gp inducer)", "result": 50, "unit": "%"},
      {"measurement": "increase in nintedanib exposure, mild hepatic impairment", "setting": "[6]", "result": "~2", "unit": "fold"},
      {"measurement": "increase in nintedanib exposure, moderate hepatic impairment", "setting": "[6]", "result": "~8", "unit": "fold"},
      {"measurement": "rate of decline in forced vital capacity", "setting": "[7]", "result": "significant reduction"}
    ]}
  ]
}
